{"source": "patent US20230078425A1", "about": "“COMPOSITIONS AND METHODS FOR GENERATING SYNTHETIC LETHALITY IN TUMORS” (Engine Biosciences Pte. Ltd., priority 2021, published 2023)", "tested_on": "LS180 cells", "assay": "CombiGEM CRISPR/Cas9 double-knockout screen (gene A biomarker + PKMYT1), barcode LFC and GI score, LS180", "assay_type": "cell-based, human", "description": "A combinatorial genetic en masse (CombiGEM™) screen is used to validate synthetic lethal pairs identified by the computational methods described in Example 1. Methods of performing CombiGEM™ are known in the art and described in U.S. Pat. No. 9,315,806; Bari, et al. (2017) Scientific Reports 7:6993; Wong, et al (2016) PNAS 113:2544-2549, each of which are incorporated by reference in their entirety. This example provides an overview of the pooled screening method to validate predicted synthetic lethal pairs of gene A biomarkers and gene B targets.\nBriefly, oligonucleotide synthesis is used to generate a library of barcoded gRNA target sequences directed to gene A biomarkers (“gene A gRNA library”) and a library of barcoded gRNA target sequences directed to gene B targets (“gene B gRNA library”). […]\nThe barcoded sgRNA lentiviral libraries are evaluated in Cas9-expressing cancer cell lines (e.g., HT29 and/or LS180 cell lines). […] Genomic DNA is harvested and used for quantification of the integrated barcodes using a combination of barcode amplification by PCR and sequencing by NGS. […] The barcode reads are normalized per million reads for each sample. To measure cell proliferation, barcode count ratios of normalized barcode reads were calculated as fold changes. […]", "data": [{"substance": "IGF1", "values": [{"measurement": "GI", "setting": "gene interaction score = observed minus expected (gene A LFC + gene B LFC) double-knockout LFC, gene B = PKMYT1, LS180 cells", "result": "−1.07"}, {"measurement": "LFC (gene A * B)", "setting": "log2 fold-change of barcode counts, double knockout of gene A biomarker and PKMYT1, Cas9-expressing LS180 cells", "result": "−1.68"}]}]}
